Laboratory results taken from PMC12226733, “Evolution of iGluR ligand specificity, polyamine regulation, and ion selectivity inferred from a placozoan epsilon receptor” (Communications Biology, 2025).
Where “and” joins values, the source holds several entries; their conditions need not be identical. Equal values may be shown once.

How the values were obtained:
GluA2 Q607S = biological target: T1, GluA2 Q607S (Homo sapiens, UniProt P42262, Q607S); assay: outside-out patch clamp, block by intracellular spermine, HEK-293T/17 cells; format: biochemical; details: GluA2 Q670S, single recordings and AVG;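 on Normalized conductance (Gnorm): normalized to each receptor's own maximal conductance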
T1 construct: host or cells: HEK-293T/17
Protocol: (§1) Parallel experiments were carried out in human GluA2 homotetramers bearing equivalent Q/R/N and +4 site mutations to compare the regulation of voltage-dependent polyamine block within the broader context of mammalian receptors. Experimental design remained the same, except for using 10 mM glutamate as the agonist used to evoke membrane currents (Fig. 7a, d, g, and j). […] Their properties were accordingly compared to wildtype GluA2(Q) co-expressed with TARP-γ2.
(§2) HEK-293T/17 cells (ATCC) were maintained in MEM supplemented with GlutaMAX and 10% fetal bovine serum (FBS) at 37 °C and 5% CO2. […] Transient transfections were carried out 48 h post-plating using the calcium phosphate precipitation method. After 6–8 hours, cells were washed twice with PBS and maintained in fresh medium. Cells transfected with mammalian GluA2 cDNA (plasmid vector described above) were returned to an incubator at 37 °C for 24–48 hours and cells transfected with Epsilon GluE1αA were incubated at 28 °C for 48–72 hours. In cells co-transfected with TARP-γ2, 30 μM NBQX was included in the medium to minimize AMPAR/auxiliary-induced cytotoxicity. All constructs were co-transfected with a plasmid encoding enhanced green fluorescent protein (eGFP) to identify transfected cells. Electrophysiology responses were recorded from outside-out patches excised from transfected cells. Recording pipettes were composed of borosilicate glass (3 to 6 megaohm, King Precision Glass) coated with dental wax to reduce electrical noise. All recordings were performed using Axopatch 200B amplifier (Molecular Devices, LLC). Current records were filtered at 5 or 10 kHz and sampled at 25–50 kHz. Series resistance (3 to 12 megaohms) was compensated by 95%. Recordings were performed at a range of holding potentials from −100 mV to 100 mV to study polyamine block. Data was acquired using pClamp9 software (Molecular Devices, LLC). All experiments were performed at room temperature. All chemicals were purchased from Sigma-Aldrich, unless otherwise indicated. External solution contained (in mM): 150 NaCl, 5 HEPES, 0.1 CaCl2, 0.1 MgCl, and […], pH 7.3–7.4. […] The osmotic pressure of all solutions was adjusted to 295 to 300 mOsm with sucrose. […] Stocks were thawed on the day of the experiment and used to prepared agonist-containing external solutions. Raw data for all electrophysiology experiments are provided in Supplementary Data 3. Current-voltage (I-V) relationships were fit using Origin 7 (OriginLab) using a ninth order polynomial function to estimate the reversal potential (Vrev).
(§3) Agonist-evoked membrane conductance (G) was calculated using the following equation: G=I/(V−Vrev)
(§4) Conductance-voltage (G-V) relationships were fit using Origin 7 (OriginLab) with the single permeant blocker model as done previously[46]: G=Gmax/1+[Spm]/Kd Where Gmax is the maximal conductance, [Spm] is the internal Spm concentration, and Kd is the dissociation constant.
(§5) Kd is defined as: Kd=koff+kperm/kon=sumofexitrates/bindingrate
(§6) And redefined as: Kd=g*exp(V/h)+L*exp(V/k) Where h and k are voltage dependencies of g and L, respectively, and at 0 mV: g=koff/konandL=kperm/kon

GluA2(Q) wt = biological target: T2, GluA2(Q) wt (Homo sapiens, UniProt P42262); assay: as above; format: biochemical; details: for Normalized conductance (Gnorm) GluA2 wild type / Normalized current (Inorm) GluA2 wild type: single recordings and AVG;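 on Normalized current (Inorm) GluA2 wild type: current normalized to the maximum current response at −100 mV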
T2 construct: host or cells: HEK-293T/17
Protocol: as §1, §2, §3, §4, §5, §6

T1 sequence (P42262 25-883 Q607S): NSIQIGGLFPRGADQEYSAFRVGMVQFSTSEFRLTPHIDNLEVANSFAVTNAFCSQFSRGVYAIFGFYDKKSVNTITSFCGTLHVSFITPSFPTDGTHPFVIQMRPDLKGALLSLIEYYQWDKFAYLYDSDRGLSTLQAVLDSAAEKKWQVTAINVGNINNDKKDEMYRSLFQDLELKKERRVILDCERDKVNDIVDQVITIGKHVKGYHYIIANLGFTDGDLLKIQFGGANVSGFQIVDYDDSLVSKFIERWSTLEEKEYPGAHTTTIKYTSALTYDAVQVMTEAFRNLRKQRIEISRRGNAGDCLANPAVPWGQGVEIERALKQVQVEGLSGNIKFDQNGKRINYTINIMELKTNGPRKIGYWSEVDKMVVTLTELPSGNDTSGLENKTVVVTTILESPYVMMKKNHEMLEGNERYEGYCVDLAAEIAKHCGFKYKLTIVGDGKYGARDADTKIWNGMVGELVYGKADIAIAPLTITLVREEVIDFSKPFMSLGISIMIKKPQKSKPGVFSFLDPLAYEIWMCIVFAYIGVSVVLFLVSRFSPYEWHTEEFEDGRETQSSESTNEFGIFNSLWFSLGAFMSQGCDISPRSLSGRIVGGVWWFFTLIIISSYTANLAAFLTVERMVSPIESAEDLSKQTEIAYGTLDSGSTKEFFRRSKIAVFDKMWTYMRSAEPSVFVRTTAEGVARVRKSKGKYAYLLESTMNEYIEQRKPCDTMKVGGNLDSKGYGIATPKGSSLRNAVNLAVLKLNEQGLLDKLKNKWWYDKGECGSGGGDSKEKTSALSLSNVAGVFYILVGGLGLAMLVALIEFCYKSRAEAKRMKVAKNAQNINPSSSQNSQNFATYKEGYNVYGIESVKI
T2 sequence (P42262 25-883): as the sequence (P42262 25-883 Q607S) above, with S583Q counted along it

**Q.** With `NCCCNCCCCNCCCN` [spermine] as the compound, how does the “Normalized current (Inorm)” value (GluA2 Q607S; 40 mV) read?
**A.** 0.23 and 0.22 and 0.25

**Q.** And the “Normalized conductance (Gnorm)” value (GluA2 Q607S; 50 mV)?
**A.** 0.68 and 0.55 and 0.59 and 0.63

**Q.** And the “Normalized current (Inorm)” value (GluA2 Q607S; 50 mV)?
**A.** 0.29 and 0.28 and 0.33 and 0.30

**Q.** What about the “Normalized conductance (Gnorm)” value (GluA2 Q607S; 60 mV) of the same compound?
**A.** 0.74 and 0.61 and 0.65 and 0.67

**Q.** And the “Normalized current (Inorm)” value (GluA2 Q607S; 60 mV)?
**A.** 0.39 and 0.36 and 0.38

**Q.** And the “Normalized conductance (Gnorm)” value (GluA2 Q607S; 70 mV)?
**A.** 0.69 and 0.61 and 0.66

**Q.** And the “Normalized current (Inorm)” value (GluA2 Q607S; 70 mV)?
**A.** 0.43 and 0.41 and 0.48 and 0.44

**Q.** What about the “Normalized conductance (Gnorm)” value (GluA2 Q607S; 80 mV) of the same compound?
**A.** 0.72 and 0.65 and 0.71 and 0.69

**Q.** And the “Normalized current (Inorm)” value (GluA2 Q607S; 80 mV)?
**A.** 0.51 and 0.57 and 0.53

**Q.** And the “Normalized conductance (Gnorm)” value (GluA2 Q607S; 90 mV)?
**A.** 0.70 and 0.62 and 0.71 and 0.68

**Q.** And the “Normalized current (Inorm)” value (GluA2 Q607S; 90 mV)?
**A.** 0.56 and 0.55 and 0.64 and 0.59

**Q.** What about the “Normalized conductance (Gnorm)” value (GluA2 Q607S; 100 mV) of the same compound?
**A.** 0.72 and 0.65 and 0.76 and 0.71

**Q.** What about the “Normalized current (Inorm)” value (GluA2 Q607S; 100 mV) of the same compound?
**A.** 0.65 and 0.77 and 0.69

**Q.** What about the “Normalized conductance (Gnorm)” value (GluA2 Q607S; -10 mV) of the same compound?
**A.** 0.58 and 0.48 and 0.57 and 0.51 and 0.53

**Q.** And the “Normalized conductance (Gnorm)” value (GluA2 Q607S; -20 mV)?
**A.** 0.55 and 0.46 and 0.51 and 0.49 and 0.50

**Q.** What about the “Normalized conductance (Gnorm)” value (GluA2 Q607S; -30 mV) of the same compound?
**A.** 0.54 and 0.46 and 0.52 and 0.50

**Q.** What about the “Normalized conductance (Gnorm)” value (GluA2 Q607S; -40 mV) of the same compound?
**A.** 0.55 and 0.48 and 0.52 and 0.45 and 0.50

**Q.** What about the “Normalized conductance (Gnorm)” value (GluA2 Q607S; -50 mV) of the same compound?
**A.** 0.57 and 0.50 and 0.52 and 0.49

**Q.** And the “Normalized conductance (Gnorm)” value (GluA2 Q607S; -60 mV)?
**A.** 0.64 and 0.55 and 0.54 and 0.56 and 0.57

**Q.** And the “Normalized conductance (Gnorm)” value (GluA2 Q607S; -70 mV)?
**A.** 0.72 and 0.61 and 0.64

**Q.** What about the “Normalized conductance (Gnorm)” value (GluA2 Q607S; -80 mV) of the same compound?
**A.** 0.81 and 0.68 and 0.75 and 0.67 and 0.73

**Q.** What about the “Normalized conductance (Gnorm)” value (GluA2 Q607S; -90 mV) of the same compound?
**A.** 0.92 and 0.76 and 0.83 and 0.81

**Q.** And the “Normalized conductance (Gnorm)” value (GluA2 Q607S; -100 mV)?
**A.** 0.86 and 0.95 and 0.90

**Q.** And the “Normalized current (Inorm)” value (GluA2 Q607S; -100 mV)?
**A.** -1.00

**Q.** And the “Normalized conductance (Gnorm) GluA2 wild type” value (GluA2(Q) wt; 10 mV)?
**A.** 0.13 and 0.07 and 0.09 and 0.12 and 0.14 and 0.11

**Q.** What about the “Normalized current (Inorm) GluA2 wild type” value (GluA2(Q) wt; 30 mV) of the same compound?
**A.** 0.0172

**Q.** And the “Normalized current (Inorm) GluA2 wild type” value (GluA2(Q) wt; 70 mV)?
**A.** 0.19 and 0.25 and 0.20 and 0.28 and 0.32 and 0.36 and 0.27

**Q.** What about the “Normalized conductance (Gnorm) GluA2 wild type” value (GluA2(Q) wt; 80 mV) of the same compound?
**A.** 0.39 and 0.55 and 0.61 and 0.72 and 0.70 and 0.59

**Q.** What about the “Normalized current (Inorm) GluA2 wild type” value (GluA2(Q) wt; 80 mV) of the same compound?
**A.** 0.31 and 0.42 and 0.39 and 0.43 and 0.54 and 0.52 and 0.44

**Q.** What about the “Normalized conductance (Gnorm) GluA2 wild type” value (GluA2(Q) wt; 90 mV) of the same compound?
**A.** 0.49 and 0.69 and 0.70 and 0.77 and 0.89 and 0.81 and 0.72

**Q.** And the “Normalized current (Inorm) GluA2 wild type” value (GluA2(Q) wt; 90 mV)?
**A.** 0.44 and 0.59 and 0.56 and 0.62 and 0.76 and 0.68 and 0.61

**Q.** What about the “Normalized conductance (Gnorm) GluA2 wild type” value (GluA2(Q) wt; 100 mV) of the same compound?
**A.** 0.66 and 0.80 and 0.82 and 0.89 and 0.94

**Q.** What about the “Normalized current (Inorm) GluA2 wild type” value (GluA2(Q) wt; 100 mV) of the same compound?
**A.** 0.66 and 0.77 and 0.74 and 0.80 and 0.89

**Q.** What about the “Normalized current (Inorm) GluA2 wild type” value (GluA2(Q) wt; -10 mV) of the same compound?
**A.** -0.0326

**Q.** What about the “Normalized current (Inorm) GluA2 wild type” value (GluA2(Q) wt; -20 mV) of the same compound?
**A.** -0.0532

**Q.** And the “Normalized conductance (Gnorm) GluA2 wild type” value (GluA2(Q) wt; -40 mV)?
**A.** 0.53 and 0.50 and 0.49 and 0.66 and 0.63 and 0.73 and 0.59

**Q.** What about the “Normalized conductance (Gnorm) GluA2 wild type” value (GluA2(Q) wt; -50 mV) of the same compound?
**A.** 0.65 and 0.63 and 0.62 and 0.80 and 0.70 and 0.82

**Q.** And the “Normalized conductance (Gnorm) GluA2 wild type” value (GluA2(Q) wt; -60 mV)?
**A.** 0.75 and 0.73 and 0.72 and 0.89 and 0.80 and 0.79

**Q.** What about the “Normalized conductance (Gnorm) GluA2 wild type” value (GluA2(Q) wt; -70 mV) of the same compound?
**A.** 0.83 and 0.76 and 0.82 and 0.93 and 0.85 and 0.92

**Q.** And the “Normalized conductance (Gnorm) GluA2 wild type” value (GluA2(Q) wt; -80 mV)?
**A.** 0.88 and 0.91 and 0.95 and 0.89

**Q.** And the “Normalized conductance (Gnorm) GluA2 wild type” value (GluA2(Q) wt; -90 mV)?
**A.** 0.90 and 0.93 and 0.98 and 0.99 and 0.95

**Q.** And the “Normalized conductance (Gnorm) GluA2 wild type” value (GluA2(Q) wt; -100 mV)?
**A.** 0.96 and 0.99 and 0.97 and 1.03 and 1.00

**Q.** What about the “Normalized current (Inorm) GluA2 wild type” value (GluA2(Q) wt; -100 mV) of the same compound?
**A.** -1.00

**Q.** What about the “h, voltage dependency of block onset” value (GluA2(Q) wt; GluA2(Q) wt) of the same compound?
**A.** −18.5 ± 0.7 mV

**Q.** What about the “k, voltage dependency of block relief” value (GluA2(Q) wt; GluA2(Q) wt) of the same compound?
**A.** 14.3 ± 0.6 mV

**Q.** What about the Kd (GluA2(Q) wt; GluA2(Q) wt, 30 µM internal Spm, 10 mM glutamate, read-out: Kd(0mV)) of the same compound?
**A.** 5.4 ± 2.6 µM

**Q.** And the k (GluA2(Q) wt; fit of Gnorm vs voltage, GluA2 wild type, single recordings)?
**A.** 16.05 and 14.65 and 13.61 and 14.56 and 11.91 and 14.81
